# Experimental data as given in patent US12410155B2, “Salt form and crystal form of tetrahydrocyclohepta indazole compound” (Zhejiang Yangli Pharmaceutical Technology Co., Ltd., priority 2021, dated 2025).
# Experiments:
# Assay type in all cases: cell-based
# [1] = system: T-47D cells; assay: T-47D cell proliferation inhibition assay (CTG); conditions: Homo sapiens, T47D, 1 nM estradiol
# Experimental: (4) MCF-7, T-47D, and CAMA-1 Cell Proliferation Inhibition Assay
# T-47D: RPMI-1640 (without phenol red) containing 10% charcoal-stripped serum (500 mL culture medium containing 450 mL RPMI-1640, 50 mL charcoal-stripped serum).
# The inhibitory effect of the test compound of formula (I) on the proliferation of MCF-7, CAMA-1, and T-47D cells was analyzed. For MCF-7 cells, ten concentration gradients ranging from 100 nM to 0.0003815 nM were tested, with three replicates for each concentration. For CAMA-1 cells, nine concentration gradients ranging from 100 nM to 0.001526 nM were tested, also with three replicates for each concentration. For T-47D cells, nine concentration gradients ranging from 2 μM to 0.00512 nM were tested, with three replicates for each concentration. Each experiment was conducted twice independently.
# The T-47D cells were treated with starvation medium for three days, followed by trypsin digestion, centrifugation, resuspension, and counting. Cell suspensions were prepared using the corresponding culture medium, and 40 μL of the suspension was added to each well of a 384-well plate. The plate was then incubated at 37° C. in a cell incubator with 5% CO2. The test compound of formula (I) was dissolved in DMSO to an initial concentration of 400 μM and subjected to a 5-fold serial dilution to achieve nine different concentrations. After overnight incubation, the diluted compound was further diluted with the corresponding cell culture medium. The resulting mixture was transferred to the respective wells of the cell plate, starting with a final concentration of 2 μM, followed by a 5-fold serial dilution to achieve nine concentrations. The positive control wells contained 2 μM fulvestrant, and 1 nM estradiol was added to the entire plate. The plate was mixed, centrifuged, and incubated at 37° C. in a cell incubator with 5% CO2 for the specified number of days according to the above table.
# After incubation for the specified time, the cell culture plate was removed, and the CTG reagent was added. […] The readings were taken using the Envision multi-label analyzer. […]
# [2] = system: MDA-MB-134VI cells; assay: MDA-MB-134VI cell proliferation inhibition assay (CTG); conditions: Homo sapiens, 240 h, 10 days
# Experimental: (5) HCC1428 and MDA-MB-134VI Cell Proliferation Inhibition Assay
# The initial concentration of the compound of formula (I) was set at 200 nM, followed by 4-fold serial dilutions to achieve ten concentration gradients.
# • 1) MDA-MB-134VI cells were cultured in DMEM complete growth medium containing 20% FBS and 1% PenStrep. • 2) When the cells in a T75 culture flask reached 80-90% cell fusion, they were digested with trypsin and collected. The cell passages used were the eighth generation for the first independent experiment and the sixth generation for the second independent experiment. • 3) The cells were centrifuged at 1000 rpm, resuspended in complete medium, and counted. The cell densities were 3.60×10^6 cells/mL for the first experiment and 1.93×10^6 cells/mL for the second experiment, with viability both exceeding 95%. • 4) Cell suspensions were prepared in complete medium at a density of 4.00×10^4 cells/mL for both experiments. […] 100 μL of CellTiter-Glo® reagent was added to each well. The plates were incubated at room temperature in the dark for 30 minutes. • 8) Luminescence values were read using a BMG plate reader.
# The IC50 (half-maximal inhibitory concentration) of the compound was obtained using the following nonlinear fitting formula: […]
# [3] = system: MCF-7 ESR1-Y537S; assay: Proliferation inhibition assay, MCF-7 ESR1-Y537S mutant cell line; conditions: Homo sapiens, MCF7, 168 h, 7 days
# Experimental: The tumor cell lines were cultured in an incubator at 37° C. with 5% CO2. Regular passaging was performed, and cells in the logarithmic growth phase were selected for plating.
# • 1) Cells were stained with trypan blue and viable cells were counted. • 2) Cells were washed once with PBS and resuspended in RPMI 1640+10% FBS medium without phenol red. The concentration was adjusted to an appropriate one. • 3) 135 μL of the cell suspension per well was added to a culture plate, and cell-free culture medium was added to the blank control well. • 4) The plates were incubated overnight at 37° C. with 5% CO2 and 100% relative humidity. 3. Preparation of 10× Compound Working Solution and Treatment of Cells • 1) Preparation of 10× compound working solution: 199 μL of cell culture medium was added to V-bottom 96-well plates. From a 2000× compound storage plate, 1 μL of the compound was added to the 96-well plate containing cell culture medium. 1 μL of DMSO was added to vehicle control and blank control. […] The final concentration of DMSO was 0.05%. • 3) The 96-well cell plate was returned to the incubator for further culture, and cell viability was assessed after 7 days. […]
# The inhibition rate (IR) of the compound was calculated using the following formula:
# [formula] Inhibition rates for different concentrations of the compound were calculated in Excel. […]
compound,measurement,setting,value
FCCCN1CC[C@H](Nc2cnc(C3=C(CC(F)(F)F)CCCc4c3ccc3[nH]nc(F)c43)cn2)C1 [Compound of formula (I)],IC50,[1]; First experiment,1.98 nM
same,IC50,[1]; Mean ± SD,2.35 ± 0.37 nM
same,IC50,[1]; Second experiment,2.71 nM
same,IC50,[2]; First experiment,0.12 nM
same,IC50,[2]; Mean ± SD,0.31 ± 0.26 nM
same,IC50,[2]; Second experiment,0.49 nM
same,IC50,[3]; read-out: Relative IC50,11.2 nM
same,IC90,[3]; read-out: Relative IC90,101 nM
